Patent publication US20250204532A1, “Treatment Liquid for Cleaning an Implant Part” (Zyfoma GmbH, priority 2013, published 2025)

System: biofilm
Assay: electrolytic cleaning of biofilm-contaminated implant surface (laboratory test)
Conditions: implants greatly covered and contaminated with a biofilm, on which tartar has also developed; relatively low dosages
Description: For detaching the bacteria or germs, respectively their residues or fragments, from the surface, it is provided to wet the latter with a conductive treatment liquid, charging it with current, possibly in the form of pulsed current impulses. […] Here, e.g. oil and/or chlorhexidine can be used. Furthermore, ionic liquids, which preferably contain I^−, Cl^− and/or OH^− ions, can also be used.

CC(=O)O [ethanoic acid]
cleaning success: good cleaning success
